Assays:
[1] = target: T1, hSULT1C3 (Homo sapiens, UniProt Q6IMI6); assay: HMF sulfoconjugation assay; assay type: biochemical
T1 construct: made in house; host or cells: Salmonella typhimurium TA1538 (cytosolic fraction, not purified)
Description: (§1) Cytosolic fractions containing individual SULT forms were prepared from transgenic S. typhimurium TA1538. Table S1 in the Supplementary Material provides a summary of the thirty SULTs used in the current study together with references describing the cloning of the respective S. typhimurium TA1538 strains. The expressed SULT forms are denoted with the prefixes h, m and r for human, mouse and rat enzymes, respectively. Bacteria were grown in Luria Broth medium containing ampicillin (100 µg/ml) by stirring for 8 h at 200 revolutions/min at 37 °C. The bacterial suspensions were centrifuged at 5,000 g for 10 min. The sediments were washed twice with 25 ml of 10 mM potassium phosphate buffer (pH 7.4)/50 mM potassium chloride (KCP buffer) and centrifuged again. The pellets were taken up in 800 µl KCP buffer and sonicated thrice for 15 s with 30 s pauses in between. The soluble fraction was attained by centrifuging for 1 h at 100,000 g. The supernatants (in the following termed cytosolic preparations) were frozen at −80 °C. The protein concentrations were determined according to a bicinchoninic acid (BCA) assay protocol. The SULT concentrations in the cytosolic preparations were estimated after electrophoretic separation and immunodetection using inclusion bodies of different SULT forms as standards (Teubner et al. [2007]). The preparation of SULT inclusion bodies and the immunodetection of SULTs is described in the Supplementary Material, which also contains a representative immunoblot of different amounts of rSult1a1standard and a cytosolic preparation of S. typhimurium expressing rSult1a1 (Fig. S1).
(§2) The reactions were conducted in mixtures of 100 µl containing 25–200 µg protein, 50 mM potassium phosphate buffer (pH 7.4), 5 mM MgCl2, 50 µM PAPS and different concentrations of HMF at 37 °C. Preliminary experiments ensured that measurements were recorded under ‘linear’ conditions, i.e., doubling of protein concentration or incubation time was doubling the amount of sulfate ester formed. The reactions were stopped after 30 min by adding 300 µl ice-cold 2-propanol, mixed and centrifuged at 15,000 g for 10 min.
(§3) SMF concentrations of the clear supernatants were analyzed by UPLC-MS/MS. The protocol was adapted from the quantification of SMF in plasma samples of HMF-treated mice (Monien et al. [2009]). In short, the supernatants were analyzed using a UPLC system (Waters) connected to a Quattro Premier XE tandem quadrupole mass spectrometer (Waters) using the negative electrospray ionization mode. Samples of 4 µl were injected into a HSS T3 column (1.8 µm, 2.1 × 100 mm; Waters) and eluted with an isocratic flow of 0.35 ml/min 10 mM ammonium acetate/methanol (95:5). The fragmentation reactions of SMF yielding two principal ions, the sulfate ion radical (m/z = 204.9 → 96.0) and the protonated sulfonate ion (m/z = 204.9 → 81.0) were monitored. The tune parameters were as follows: temperature of the electrospray source 120 °C; desolvation temperature 475 °C; desolvation gas nitrogen (800 l/h); cone gas nitrogen (100 l/h); collision gas argon (indicated cell pressure ~5 × 10^−3 mbar). For the fragmentation of SMF, collision energies were 20 and 23 eV for the transitions m/z = 204.9 → 81.0 and m/z = 204.9 → 96.0, respectively. The dwell time was set to 100 ms, and capillary voltage was set to 0.35 kV. The cone and RF1 lens voltages were 32 and 0.2 V, respectively. SMF was quantified using an external calibration line that was linear in the concentration range of 1.0 nM (4 fmol/injection) to 2,500 (10 pmol/injection) SMF (r ^2 ≥ 0.99). Data acquisition and handling were performed with MassLynx 4.1 software (Waters). The limit of detection (LOD) for this technique of 2.5 nM SMF has been reported (Monien et al. [2009]). In the current study, this corresponds to 10 fmol SMF per injection or a reaction rate of 0.5 pmol SMF/mg/min.

[2] = target: T2, mSult1d1 (Mus musculus, UniProt Q3UZZ6); assay: HMF sulfoconjugation assay; assay type: biochemical
T2 construct: made in house; host or cells: Salmonella typhimurium TA1538 (cytosolic fraction, enzyme not purified)
Description: as §1, §2, §3

[3] = target: T3, mSult2a2 (Mus musculus, UniProt P50236); assay: HMF sulfoconjugation assay; assay type: biochemical
T3 construct: made in house; host or cells: Salmonella typhimurium TA1538 (cytosolic fraction, enzyme not purified)
T3 sequence (P50236 1-285): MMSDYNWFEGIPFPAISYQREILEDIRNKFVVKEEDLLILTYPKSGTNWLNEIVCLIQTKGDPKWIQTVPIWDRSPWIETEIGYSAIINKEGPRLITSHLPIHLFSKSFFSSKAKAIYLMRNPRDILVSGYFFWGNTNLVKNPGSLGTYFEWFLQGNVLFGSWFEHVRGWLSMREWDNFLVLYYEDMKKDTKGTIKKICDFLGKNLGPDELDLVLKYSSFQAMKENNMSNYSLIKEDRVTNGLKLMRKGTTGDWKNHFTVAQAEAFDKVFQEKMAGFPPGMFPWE
Description: as §1, §2, §3

[4] = target: T4, rSult1c1 (Rattus norvegicus, UniProt P50237); assay: HMF sulfoconjugation assay; assay type: biochemical
T4 construct: made in house; host or cells: Salmonella typhimurium TA1538 (cytosolic fraction, enzyme not purified)
Description: as §1, §2, §3

[5] = tested on: mSult2a3; assay: HMF sulfoconjugation assay; assay type: biochemical, mouse
Description: as §1, §2, §3

[6] = tested on: mSult5a1; assay: HMF sulfoconjugation assay; assay type: biochemical, mouse
Description: as §1, §2, §3

[7] = tested on: female B6C3F1 mice; assay: Two-year bioassay of HMF, oral administration; assay type: in vivo; settings: 70 kg human body weight, uptake 4–30 mg per person
[8] = tested on: female B6C3F1 mice; design: method as in National Toxicology Program [2008]; settings: oral 188 mg HMF/kg for 104 weeks, ref National Toxicology Program [2008]; cited from earlier work

T2 sequence (Q3UZZ6 whole entry): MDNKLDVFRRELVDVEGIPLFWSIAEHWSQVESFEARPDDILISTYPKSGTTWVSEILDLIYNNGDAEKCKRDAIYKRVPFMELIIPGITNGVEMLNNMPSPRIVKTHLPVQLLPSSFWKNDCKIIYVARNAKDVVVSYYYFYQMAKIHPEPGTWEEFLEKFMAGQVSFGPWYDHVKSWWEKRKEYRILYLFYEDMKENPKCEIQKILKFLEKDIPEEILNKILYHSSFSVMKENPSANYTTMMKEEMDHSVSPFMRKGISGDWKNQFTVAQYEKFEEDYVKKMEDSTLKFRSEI
T1 sequence (Q6IMI6 whole entry): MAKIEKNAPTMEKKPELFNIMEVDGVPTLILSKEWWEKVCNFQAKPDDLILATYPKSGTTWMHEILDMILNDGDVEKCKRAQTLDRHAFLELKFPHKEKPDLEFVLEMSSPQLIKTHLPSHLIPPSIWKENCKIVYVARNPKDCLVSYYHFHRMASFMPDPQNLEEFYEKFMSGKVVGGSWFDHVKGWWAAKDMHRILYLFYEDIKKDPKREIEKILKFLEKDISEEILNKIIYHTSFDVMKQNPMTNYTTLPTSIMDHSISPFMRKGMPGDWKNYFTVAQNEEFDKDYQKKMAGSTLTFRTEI
T4 sequence (P50237 whole entry): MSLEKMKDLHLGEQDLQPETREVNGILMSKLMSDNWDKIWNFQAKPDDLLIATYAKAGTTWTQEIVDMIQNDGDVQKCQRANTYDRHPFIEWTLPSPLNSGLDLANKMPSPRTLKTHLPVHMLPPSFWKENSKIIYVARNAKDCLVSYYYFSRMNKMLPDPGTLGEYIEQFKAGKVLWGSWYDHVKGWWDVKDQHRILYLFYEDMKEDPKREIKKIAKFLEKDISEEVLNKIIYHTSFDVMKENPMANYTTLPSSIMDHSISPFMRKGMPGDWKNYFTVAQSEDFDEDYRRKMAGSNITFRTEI

For `O=Cc1ccc(CO)o1` [HMF, 5-Hydroxymethylfurfural], which Rate of sulfoconjugation ([1]; 0.1 mM HMF) is on record?
The Rate of sulfoconjugation was under 0.5 pmol/mg/min.

What about the Rate of sulfoconjugation ([1]; 1 mM HMF) of the same compound?
Its Rate of sulfoconjugation is 1.0 ± 0.1 pmol/mg/min.

And the Rate of sulfoconjugation ([1]; 10 mM HMF)?
Its Rate of sulfoconjugation is 7.2 ± 0.9 pmol/mg/min.

And the Rate of sulfoconjugation ([1]; 100 mM HMF)?
Its Rate of sulfoconjugation is 3.6 ± 0.2 pmol/mg/min.

What about the Rate of sulfoconjugation ([2]; 0.1 mM HMF) of the same compound?
The Rate of sulfoconjugation was 124 ± 33 pmol/mg/min.

What about the Rate of sulfoconjugation ([2]; 1 mM HMF) of the same compound?
The Rate of sulfoconjugation was 1,160 ± 260 pmol/mg/min.

And the Rate of sulfoconjugation ([2]; 10 mM HMF)?
The Rate of sulfoconjugation was 6,750 ± 1,190 pmol/mg/min.

And the Rate of sulfoconjugation ([2]; 100 mM HMF)?
The Rate of sulfoconjugation was 22,400 ± 2,400 pmol/mg/min.

What about the “K M” value ([2]; HMF sulfoconjugation, Michaelis-Menten fit) of the same compound?
Its value is 31.9 ± 5.7 mM.

What about the Rate of sulfoconjugation ([3]; 0.1 mM HMF) of the same compound?
Its Rate of sulfoconjugation is under 0.5 pmol/mg/min.

And the Rate of sulfoconjugation ([3]; 1 mM HMF)?
The Rate of sulfoconjugation was 4.4 ± 0.8 pmol/mg/min.

And the Rate of sulfoconjugation ([3]; 10 mM HMF)?
Its Rate of sulfoconjugation is 32.4 ± 3.2 pmol/mg/min.

And the Rate of sulfoconjugation ([3]; 100 mM HMF)?
The Rate of sulfoconjugation was 77.5 ± 11.7 pmol/mg/min.

And the Rate of sulfoconjugation ([4]; 0.1 mM HMF)?
The Rate of sulfoconjugation was 2.1 ± 1.3 pmol/mg/min.

And the Rate of sulfoconjugation ([4]; 1 mM HMF)?
The Rate of sulfoconjugation was 29.1 ± 9.0 pmol/mg/min.

And the Rate of sulfoconjugation ([4]; 10 mM HMF)?
Its Rate of sulfoconjugation is 120 ± 39 pmol/mg/min.

And the Rate of sulfoconjugation ([4]; 100 mM HMF)?
Its Rate of sulfoconjugation is 47.5 ± 27.3 pmol/mg/min.

What about the “K M” value ([4]; HMF sulfoconjugation, extended Michaelis-Menten equation with substrate inhibition) of the same compound?
The value was 18.4 ± 4.7 mM.

And the Rate of sulfoconjugation ([5]; 0.1 mM HMF)?
The Rate of sulfoconjugation was under 0.5 pmol/mg/min.

What about the Rate of sulfoconjugation ([5]; 1 mM HMF) of the same compound?
The Rate of sulfoconjugation was under 0.5 pmol/mg/min.

What about the Rate of sulfoconjugation ([5]; 10 mM HMF) of the same compound?
Its Rate of sulfoconjugation is under 0.5 pmol/mg/min.

And the Rate of sulfoconjugation ([5]; 100 mM HMF)?
The Rate of sulfoconjugation was under 0.5 pmol/mg/min.

What about the Rate of sulfoconjugation ([6]; 0.1 mM HMF) of the same compound?
The Rate of sulfoconjugation was under 0.5 pmol/mg/min.

And the Rate of sulfoconjugation ([6]; 1 mM HMF)?
The Rate of sulfoconjugation was under 0.5 pmol/mg/min.

And the Rate of sulfoconjugation ([6]; 10 mM HMF)?
The Rate of sulfoconjugation was under 0.5 pmol/mg/min.

And the Rate of sulfoconjugation ([6]; 100 mM HMF)?
The Rate of sulfoconjugation was under 0.5 pmol/mg/min.

What about the “margin between carcinogenic dose (188 mg/kg) and human HMF uptake” value [7] of the same compound?
Its value is 440- to 3,300 fold.

And the carcinogenic effect [8]?
The carcinogenic effect was “increased incidences of hepatocellular adenomas”.

Reference: publication PMC4710668, “Bioactivation of food genotoxicants 5-hydroxymethylfurfural and furfuryl alcohol by sulfotransferases from human, mouse and rat: a comparative study” (Archives of Toxicology, 2014)
